According to patent publication US20160309717A1, “Compounds with Nematicidal Activity” (BAYER CROPSCIENCE AKTIENGESELLSCHAFT, priority 2013, published 2016):

Legend:
[1] = Measurement of log P values by HPLC on reversed phase columns (EEC directive 79/831 Annex V.A8); format: physicochemical; details: for LogP [b] / chromatographic logP: LC-MS at pH 2.7, 0.1% formic acid in water / acetonitrile; for LogP [c]: LC-MS at pH 7.8, 0.001 molar ammonium hydrogen carbonate in water / acetonitrile; for chromatographic logP: reversed phase HPLC column, read-out: LogP [b]
Procedure: Measurement of Log P-Values:
Measurement of log P values was performed according EEC directive 79/831 Annex V.A8 by HPLC (High Performance Liquid Chromatography) on reversed phase columns with the following methods:
^[a] Measurement was done at pH 2.3 with 0.1% phosphoric acid and acetonitrile as eluent with a linear gradient from 10% acetonitrile to 95% acetonitrile.
^[b]measurement of LC-MS was done at pH 2.7 with 0.1% formic acid in water and with acetonitrile (contains 0.1% formic acid) as eluent with a linear gradient from 10% acetonitrile to 95% acetonitrile.
^[c] Measurement with LC-MS was done at pH 7.8 with 0.001 molar ammonium hydrogen carbonate solution in water as eluent with a linear gradient from 10% acetonitrile to 95% acetonitrile.
Calibration was done with not branched alkan2-ones (with 3 to 16 carbon atoms) with known log P-values (measurement of log P values using retention times with linear interpolation between successive alkanones). Lambda-maX-values were determined using UV-spectra from 200 nm to 400 nm and the peak values of the chromatographic signals.

Cooperia curticei = Cooperia curticei test (COOPCU), larval mortality
Procedure: (§1) Solvent: Dimethyl Sulfoxide
(§2) To produce a suitable preparation of active compound, 10 mg of active compound are dissolved in 0.5 ml solvent, and the concentrate is diluted with “Ringer's solution” to the desired concentration.
Approximately 40 nematode larvae (Cooperia curticei) are transferred into a test tube containing the compound solution.
After 5 days percentage of larval mortality is recorded. 100% efficacy means all larvae are killed; 0% efficacy means no larvae are killed.

Haemonchus contortus = experiment: microbe, parasite or virus in culture; details: 120 h, read-out: activity (percentage of larval mortality)
Procedure: as §1, §2
Approximately 40 larvae of the red stomach worm (Haemonchus contortus) are transferred into a test tube containing compound solution.
After 5 days percentage of larval mortality are recorded. 100% efficacy means all larvae are killed, 0% efficacy means no larvae are killed.

Meloidogyne incognita = Meloidogyne incognita test, gall formation on salad seedlings in sand; format: in vivo; details: application rate 20 ppm; after 14 days; 100% = no galls found
Procedure: Solvent: 125.0 Parts by Weight of Acetone
To produce a suitable preparation of active compound, 1 part by weight of active compound is mixed with the stated amount of solvent, and the concentrate is diluted with water to the desired concentration.
Vessels are filled with sand, a solution of the active ingredient, a suspension containing eggs and larvae of the southern root-knot nematode (Meloidogyne incognita) and salad seeds. The salad seeds germinate and the seedlings grow. Galls develop in the roots.
After 14 days the nematicidal activity is determined on the basis of the percentage of gall formation. 100% means no galls were found and 0% means the number of galls found on the roots of the treated plants was equal to that in untreated control plants.

Compound: O=C(NCC1(c2ccc(Br)cn2)CC1)c1ccccc1C(F)(F)F [Example 7]
- LogP [b] [1]: ^[b]3,1 ^[c]3,1
- LogP [c] [1]: ^[b]3,1 ^[c]3,1

Compound: Cn1cc(C(=O)NCC2(c3ncc(C(F)(F)F)cc3Cl)CC2)c(C(F)F)n1 [Example 13, N-[[1-[3-chloro-5-(trifluoromethyl)-2-pyridyl]cyclopropyl]methyl]-3-(difluoromethyl)-1-methyl-pyrazole-4-carboxamide]
- mortality at 20 ppm (Cooperia curticei; Cooperia curticei, 120 h, read-out: activity (percentage of larval mortality)): 100%
- chromatographic logP [1]: 2.63
- mortality at 20 ppm (Haemonchus contortus): 80%
- nematicidal activity on the basis of the percentage of gall formation (Meloidogyne incognita): 100%

Compound: O=C(NCC1(c2ccc(Br)cn2)CC1)c1cccnc1C(F)(F)F [Example 10]
- LogP [b] [1]: 2,51
- LogP [c] [1]: 2,5
- nematicidal activity on the basis of the percentage of gall formation (Meloidogyne incognita): 90%

Compound: O=C(NCC1(c2cccc(Cl)n2)CC1)c1cccnc1C(F)(F)F [Example 1]
- LogP [b] [1]: 2,42
- LogP [c] [1]: 2,41

Compound: O=C(NCC1(c2ccc(Br)cn2)CC1)c1ccccc1I [Example 8]
- LogP [b] [1]: 3,1
- LogP [c] [1]: 3,09

Compound: O=C(NCC1(c2cccc(Cl)n2)CC1)c1cccnc1Cl [Example 5]
- LogP [b] [1]: ^[b]2,11 ^[c]2,11
- LogP [c] [1]: ^[b]2,11 ^[c]2,11

Compound: O=C(NCC1(c2ccc(Br)cn2)CC1)c1c(F)cccc1F [Example 9]
- LogP [b] [1]: ^[b]2,71 ^[c]2,71
- LogP [c] [1]: ^[b]2,71 ^[c]2,71

Compound: O=C(NCC1(c2ccc(Br)cn2)CC1)c1cccnc1Cl [Example 11]
- LogP [b] [1]: 2,17
- LogP [c] [1]: 2,18

Compound: O=C(NCC1(c2cccc(Cl)n2)CC1)c1c(F)cccc1F [Example 2]
- LogP [b] [1]: 2,63
- LogP [c] [1]: 2,62

Compound: O=C(NCC1(c2cccc(Cl)n2)CC1)c1ccccc1I [Example 3]
- LogP [b] [1]: 2,98
- LogP [c] [1]: 2,96

Compound: O=C(NCC1(c2cccc(Cl)n2)CC1)c1ccccc1C(F)(F)F [Example 4]
- LogP [b] [1]: 3
- LogP [c] [1]: 2,99

Compound: Cn1cc(C(=O)NCC2(c3ccc(Br)cn3)CC2)c(C(F)F)n1 [Example 12]
- LogP [b] [1]: 2,31
- LogP [c] [1]: 2,33

Compound: O=C(NCC1(c2ccc(Cl)cn2)CC1)c1ccccc1C(F)(F)F [Example 15]
- activity (percentage of larval mortality) (Cooperia curticei; application rate 20 ppm, after 5 days, 100% = all larvae killed): 90%
- LogP [b] [1]: 2,91
- LogP [c] [1]: 2,96
- nematicidal activity on the basis of the percentage of gall formation (Meloidogyne incognita): 70%

Compound: O=C(NCC1(c2ncc(Br)cc2Cl)CC1)c1cccnc1C(F)(F)F [Example 14, N-{[1-(5-bromo-3-chloropyridin-2-yl)cyclopropyl]methyl}-2-(trifluoromethyl)nicotinamide]
- chromatographic logP [1]: 2.88

Compound: Cn1cc(C(=O)NCC2(c3cccc(Cl)n3)CC2)c(C(F)F)n1 [Example 6]
- LogP [b] [1]: 2,25
- LogP [c] [1]: 2,24
